Source: PMC9127232, “Wound Healing Properties of Jasione montana Extracts and Their Main Secondary Metabolites” (Frontiers in Pharmacology, 2022)
Where “and” joins values, the source holds several entries; their conditions need not be identical. Equal entries are not always repeated. Entries after “also recorded” stand apart in the source; their conditions may differ.

Key:
[1] = DPPH radical-scavenging assay; settings: for DPPH, IC50: 30 min, absorbance 517 nm, mean ± SD; for antiradical potential in the DPPH method compared with Trolox: vs positive control Trolox IC50 58.6 ± 0.1 μg/mL
Protocol: All extracts (JM1–JM6) and main components of the tested extracts (9, 12, and 22) were isolated and identified as previously described ([Juszczak et al., 2021]). A total of 130 μL of sample solution at various concentrations was mixed with 70 μL of DPPH (0.2 mg/mL) in a 96-well plate. Then, the reaction mixture was incubated in the dark at room temperature. After 30 min, the absorbance was recorded at 517 nm using a microplate reader (BioTek Instruments microplate spectrophotometer EPOCH 2, Oxfordshire, United Kingdom). A blank solution was prepared by mixing methanol and DPPH solution. Trolox was used as a positive control. The experiment was performed in triplicate. RSA(%)=(C-S)/C×100% where C is the negative control and S is the sample. Concentration of the tested samples, which scavenges 50% of free radicals present in the solution (IC50), was calculated.

[2] = Ferric reducing antioxidant potential (FRAP); settings: for FRAP: 1 h at 37°C, 594 nm
Protocol: Determination of the ferric reducing antioxidant potential (FRAP) was performed using a ferric reducing antioxidant power assay kit. Ten microliters of each sample (JM1–JM6, 9, 12, 22) was mixed with 190 µL of supplied reaction mix (FRAP assay buffer, FeCl3 solution, FRAP probe). The absorbance was measured after 1 h of incubation at 37°C at 594 nm using a microplate reader. A blank solution contained 10 µL of MeOH instead of extract/compound solution. For further calculations, the ferrous standard curve was evaluated. The values are given as mM ferrous equivalents. All tests were executed in triplicate.

[3] = target: porcine pancreatic elastase (Sus scrofa, UniProt P00772); test: Elastase inhibitory activity; assay type: biochemical; settings: for anti-elastase activity (in words): extracts 100–600 μg/mL, compounds 10–200 μg/mL
Chain of porcine pancreatic elastase (P00772 27-266): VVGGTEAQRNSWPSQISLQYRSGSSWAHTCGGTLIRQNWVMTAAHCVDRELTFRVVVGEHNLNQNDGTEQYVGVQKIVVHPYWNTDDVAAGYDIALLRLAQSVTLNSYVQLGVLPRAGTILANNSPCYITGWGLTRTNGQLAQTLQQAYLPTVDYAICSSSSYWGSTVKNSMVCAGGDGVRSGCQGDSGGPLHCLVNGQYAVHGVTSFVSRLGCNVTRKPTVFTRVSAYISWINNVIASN
Protocol: The measurement of elastase inhibition was modified slightly according to a previous method ([Wittenauer et al., 2015]). The procedure was performed in 100 mM Tris buffer (pH = 8.0). Briefly, 100 µL of extracts (JM1–JM6) (100–600 μg/mL) or compounds (9, 12, and 22) (10–200 μg/mL) and 100 µL of Tris buffer were mixed with 25 µL of porcine pancreatic elastase solution (0.05 mg/mL). Then, the mixtures were preincubated at 25°C for 5 min, and 70 µL of AAAPVN (0.4 mg/mL) was added. After another 15 min of incubation, the release of p-nitroaniline was monitored at 410 nm using a microplate reader. A blank solution was prepared by using buffer instead of sample solution. […] The calculations were performed as follows: ElInh(% )=(C-S)/C×100% where C is the negative control and S is the sample.

[4] = tested on: normal human dermal fibroblast cell line (PCS-201-012); test: Scratch proliferation and migration assay; assay type: cell-based; settings: 24 h; for cell migration into the injured area: up to 100 μg/mL
Protocol: The normal human dermal fibroblast cell line (PCS-201-012) was cultured in DMEM blended with 10% fetal bovine serum (FBS), 10 μg/mL streptomycin, and 10 units/mol penicillin. The cells were cultured in 5% CO2 and fully humidified at 37°C. All tested compounds were dissolved at a final vehicle (DMSO) concentration of not more than 0.5% (v/v). Cells cultured in drug-free DMEM were used as controls, and cells treated with DMSO alone were used as solvent controls. All extracts (JM1-JM6) and the main components of the tested extracts (9, 12, and 22) were analyzed at the following concentrations: 10, 25, 50, 100, 200, and 300 μg/mL. The in vitro wound healing activity of J. montana extracts and isolated compounds was determined by a scratch assay, which is a model of a wound in which monolayer skin cells, including fibroblasts, react to the disruption of contact between cells and stimulate proliferation and migration by modulating the concentration of growth factors and cytokines at the edge wounds ([Liang et al., 2007]). For this purpose, fibroblast cells were seeded at a density of 2.5 × 10^5 in 6-well cell culture dishes and incubated for 24 h at 37°C. After incubation, a linear scratch was made with a universal sterile 200 μL pipette tip. Cells were incubated with the tested extracts (JM1-JM6) and compounds (9, 12, and 22) at concentrations of 10, 25, 50, 100, 200 and 300 μg/mL for 24 h at 37°C. Allantoin, a plant-derived commercialized drug, was used as the positive control at a concentration of 50 μg/mL to judge the rate of cell migration ([[…] et al., 2020]). After incubation, the migrated cells were washed twice with PBS and observed under a phase contrast microscope. The progress of migration, proliferation and closing of the wound before and after treatment with the tested samples was monitored by imaging with a phase contrast microscope (Nikon Eclipse Ti, Tokyo, Japan) at × 100 magnification and NIS-Elements 3.0 imaging software (Nikon Instruments Inc., Melville, NY, United States).

[5] = tested on: collagen type I in fibroblast cells (PCS-201-012); test: Collagen type I biosynthesis by flow cytometry; assay type: cell-based, human; settings: for collagen type I content, median fluorescence intensity (MFI): 24 h
Protocol: The normal human dermal fibroblast cell line (PCS-201-012) was cultured in DMEM blended with 10% fetal bovine serum (FBS), 10 μg/mL streptomycin, and 10 units/mol penicillin. The cells were cultured in 5% CO2 and fully humidified at 37°C. All tested compounds were dissolved at a final vehicle (DMSO) concentration of not more than 0.5% (v/v). Cells cultured in drug-free DMEM were used as controls, and cells treated with DMSO alone were used as solvent controls. All extracts (JM1–JM6) and the main components of the tested extracts (9, 12, and 22) were analyzed at the following concentrations: 10, 25, 50, 100, 200, and 300 μg/mL. The effect of the tested extracts and fractions (JM1–JM6), as well as their main compounds (9, 12, and 22) on collagen type I biosynthesis was determined using a method of cytometric staining of the surface anti-collagen type I according to the manufacturer’s protocols. Fibroblasts were incubated for 24 h at 37°C with the test samples at concentrations of 10, 25, 50, 100, 200, and 300 μg/mL. Allantoin (50 μg/mL) was used as a positive control. After incubation, fibroblasts were washed with PBS, trypsinized, resuspended in DMEM and centrifuged (1,200 rpm, 10 min, 4°C). The supernatant was removed, and the cells were washed with 2 mL of stain buffer. Then, the cells were incubated for 30 min on ice with 100 µL of stain buffer and 1 µL of antibody. After complete incubation, 2 mL of stain buffer was added. After consecutive centrifugation (1,200 rpm, 10 min, 4°C), the supernatant was removed, the cells were resuspended in 300 µL of buffer and then immediately subjected to analysis on a flow cytometer (BD FACSCanto II flow cytometer, San Jose, CA, United States) calibrated with BD Cytometer Setup and Tracking beads (BD Biosciences, San Diego, CA, United States). The median fluorescence intensity was calculated using FACSDiva software (BD Biosciences Systems, San Jose, CA, United States) and analyzed by FCS Express 7 software (DeNovo Software, Pasadena, CA, United States).

[6] = tested on: IL-8 in fibroblast cells (PCS-201-012); test: Cytometric Bead Array, IL-8 secretion; assay type: cell-based, human; settings: 24 h
Protocol: (§1) The normal human dermal fibroblast cell line (PCS-201-012) was cultured in DMEM blended with 10% fetal bovine serum (FBS), 10 μg/mL streptomycin, and 10 units/mol penicillin. The cells were cultured in 5% CO2 and fully humidified at 37°C. All tested compounds were dissolved at a final vehicle (DMSO) concentration of not more than 0.5% (v/v). Cells cultured in drug-free DMEM were used as controls, and cells treated with DMSO alone were used as solvent controls. All extracts (JM1–JM6) and the main components of the tested extracts (9, 12, and 22) were analyzed at the following concentrations: 10, 25, 50, 100, 200, and 300 μg/mL. The effect of the tested extracts and fractions (JM1–JM6) as well as 9, 12, and 22 on cytokine (IL-1β, IL-6 IL-8, IL-10, IL-12p70 and TNF) secretion was determined using the Cytometric Bead Array (CBA) Human Inflammatory Cytokine Kit according to the manufacturer’s protocols. After 24 h of incubation with the test samples at concentrations of 10, 25, 50, 100, 200, and 300 μg/mL, fibroblast cells were washed with PBS, trypsinized, resuspended in DMEM and centrifuged (1,200 rpm, 10 min, 4°C). The supernatant was then replaced with 50 μL of assay diluent with the addition of 50 μL of assay beads and 50 μL of PE-labeled antibodies (detection reagent) from the human inflammatory cytokine kit. Incubation was performed for 3 h at room temperature without daylight, after which the fibroblast cells were washed and centrifuged (1,200 rpm, 5 min, 4°C). The cell pellet was resuspended in 300 μL of wash buffer and then immediately subjected to analysis by FCAP Array v3 software on a BD FACSCanto II flow cytometer (both from BD Biosciences Systems, San Jose, CA, United States) calibrated with BD Cytometer Setup and Tracking beads (BD Biosciences, San Diego, CA, United States).

[7] = tested on: IL-6 in fibroblast cells (PCS-201-012); test: Cytometric Bead Array, IL-6 secretion; assay type: cell-based, human; settings: 24 h
Protocol: as §1

[8] = tested on: IL-1β in fibroblast cells (PCS-201-012); test: Cytometric Bead Array, IL-1β secretion; assay type: cell-based, human; settings: for IL-1β: BSR = below the standard range (lower than detection limit)
Protocol: as §1

dermal fibroblast cells = tested on: dermal fibroblast cells; design: method as in Juszczak et al., 2021; settings: ref Juszczak et al., 2021; cited from earlier work

Structure (SMILES) | DPPH, IC50 [1] | antiradical potential in the DPPH method compared with Trolox [1] | FRAP [2] | anti-elastase activity (in words) [3] | cell migration into the injured area [4] | collagen type I content, median fluorescence intensity (MFI) ([5]; 300 μg/mL, control 1,507 ± 9.2) | IL-8 levels (in words) ([6]; 100–300 μg/mL) | concentration at which the highest increase in IL-6 secretion occurred [7] | FRAP / reducing power [2] | cytotoxicity on dermal fibroblast cells (in words) (dermal fibroblast cells) | further results
NC(=O)NC1NC(=O)NC1=O (centres unmarked) [allantoin, reference compound] | – | – | – | – | – | – | – | – | – | – | collagen type I content, median fluorescence intensity (MFI) ([5]; 50 μg/mL, control 1822 ± 62.2): 1,494 ± 2.8; IL-1β levels (in words) ([8]; 50 μg/mL, 24 h, positive control): stimulation of proinflammatory IL-1β levels; IL-8 expression (in words) ([6]; 50 μg/mL, positive control): decrease in IL-8 expression; IL-6 (in words) ([7]; 50 μg/mL, positive control): upregulation of IL-6
O=c1cc(-c2ccc(O)c(O)c2)oc2cc(O)cc(O)c12 [Compound 22, 5,7,3',4'-tetrahydroxyflavone] | 10.6 ± 0.7 µg/mL and 10.65 ± 0.7 µg/mL | stronger antiradical potential | 51.81 ± 0.78 mM Fe^2+eq/mL | – | – | – | – | – | 60.59 ± 0.5 mM Fe^2+/mL | toxicity at the higher concentrations tested | IC50 ([3]; Tris buffer pH 8.0, substrate AAAPVN, 410 nm): 139 µM; stimulation of fibroblast migration ([4]; only at 10 μg/mL): capable of stimulating cells only at a low concentration; collagen content in fibroblast cells (in words) ([5]; 10 μg/mL): decrease in collagen content; IL-1β level ([8]; 100 μg/mL, 24 h, control 13.4 ± 5.6 pg/mL): 1.7 ± 1.1 pg/mL; IL-1β ([8]; 200 μg/mL): BSR; IL-1β ([8]; 300 μg/mL): BSR; IL-1β expression (in words) ([8]; 200–300 μg/mL, 24 h): below the sensitivity of the method; secretion of IL-1β (in words) ([8]; all tested concentrations 10–300 μg/mL, 24 h): highest decrease; IL-8 level ([6]; 300 μg/mL, control 8,396.8 ± 2,771.1 pg/mL): 60.8 ± 8 pg/mL; IL-8 expression (in words) ([6]; 10–300 μg/mL): decrease in its expression was most pronounced; IL-6 expression levels (in words) ([7]; 10–300 μg/mL, vs untreated control): dose-dependent decrease

Now from value to compound, other results behind:

DPPH, IC50 [1] | Structure (SMILES) | antiradical potential in the DPPH method compared with Trolox [1] | FRAP [2] | anti-elastase activity (in words) [3] | cell migration into the injured area [4] | collagen type I content, median fluorescence intensity (MFI) ([5]; 300 μg/mL, control 1,507 ± 9.2) | IL-8 levels (in words) ([6]; 100–300 μg/mL) | concentration at which the highest increase in IL-6 secretion occurred [7] | FRAP / reducing power [2] | cytotoxicity on dermal fibroblast cells (in words) (dermal fibroblast cells) | further results
20.34 ± 0.8 µg/mL | O=c1cc(-c2ccc(O)c(O)c2)oc2cc(O[C@@H]3O[C@H](CO)[C@@H](O)[C@H](O)[C@H]3O[C@@H]3OC[C@@H](O)[C@H](O)[C@H]3O)cc(O)c12 [Compound 9, luteolin 7-O-β-D-xylosyl-(1-2)-β-D-glucoside] | stronger antiradical potential | 60.59 ± 0.46 mM Fe^2+eq/mL | no significant inhibitory activity; also recorded: not active | significantly increased | 1763 ± 58 | reduced IL-8 levels | 100 µg/mL | – | – | effectiveness in the scratch test ([4]; 50 μg/mL, comparable with allantoin 50 μg/mL): most effective; IL-8 levels (in words) ([6]; 10–100 μg/mL): significant increase
58.6 ± 0.1 µg/mL | Cc1c(C)c2c(c(C)c1O)CCC(C)(C(=O)O)O2 (centres unmarked) [Trolox, reference compound] | – | – | – | – | – | – | – | – | – | –
16.6 ± 0.7 µg/mL and 16.59 ± 0.7 µg/mL | O=c1cc(-c2ccc(O)c(O)c2)oc2cc(O[C@@H]3O[C@H](CO)[C@@H](O)[C@H](O)[C@H]3O)cc(O)c12 [Compound 12, luteolin 7-O-β-D-glucoside] | stronger antiradical potential | 51.88 ± 0.53 mM Fe^2+eq/mL | no significant inhibitory activity; also recorded: not active | significantly increased | 1717 ± 10.6 | reduced IL-8 levels | 100 µg/mL | 51.9 ± 0.5 mM Fe^2+/mL | did not show strong cytotoxicity | –
